According to patent US20140081025A1, “HETEROAROMATIC RING DERIVATIVE” (TAISHO PHARMACEUTICAL CO., LTD., priority 2011, published 2014):

Key:
[1] = molecular target: T1, human orexin 1 receptor (hOX1R) (Homo sapiens, UniProt O43613); assay: Measurement of orexin antagonist activity (intracellular Ca2+ fluorescence, FDSS) in CHO cells expressing hOX1R; type: cell-based; details: CHO cells forcibly expressing hOX1R; ligand (two-amino-acid-substituted human orexin-A) 300 pM; Fluo 4-AM; read-out: IC50 value OX1
T1 construct: expressed in transfected cells; host or cells: Chinese hamster ovary (CHO) cells
T1 sequence (O43613 1-425): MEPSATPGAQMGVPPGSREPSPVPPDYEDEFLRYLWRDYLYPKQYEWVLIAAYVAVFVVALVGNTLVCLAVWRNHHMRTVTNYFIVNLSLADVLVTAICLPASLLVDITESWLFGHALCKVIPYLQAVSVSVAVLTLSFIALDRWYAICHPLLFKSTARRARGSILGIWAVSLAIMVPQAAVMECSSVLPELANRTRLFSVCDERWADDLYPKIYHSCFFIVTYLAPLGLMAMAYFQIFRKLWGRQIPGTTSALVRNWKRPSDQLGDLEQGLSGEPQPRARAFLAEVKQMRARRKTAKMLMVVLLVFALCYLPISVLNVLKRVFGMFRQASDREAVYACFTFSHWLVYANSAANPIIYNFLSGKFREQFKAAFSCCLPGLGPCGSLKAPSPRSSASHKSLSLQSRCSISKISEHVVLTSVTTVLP
Description: (§1) The antagonist activity of a test compound against the human orexin 1 receptor (hOX1R) or orexin 2 receptor (hOX2R) was measured by the method described in the document (Toshikatsu Okumura et al., Biochemical and Biophysical Research Communications, 280, 976-981, 2001) with appropriate modification. Chinese hamster ovary (CHO) cells forcibly expressing hOX1R or hOX2R were seeded into each well of a 96-well Black clear bottom plate (Nunc A/S) in the amount of 20000 cells per well and were cultured in a Ham's F-12 medium (Invitrogen, Inc.) containing 0.1 mM MEM non-essential amino acids (Invitrogen, Inc.), 0.5 mg/mL G418 (Invitrogen, Inc.), and 10% fetal calf serum (Invitrogen, Inc.) at 37° C. in 5% CO2 for 16 hours. The medium was removed, and then added to each well was 100 μL of an assay buffer (pH 7.4) containing 0.5 μM Fluo 4-AM ester (Dojindo Laboratories), wherein the buffer was composed of 25 mM HEPES (Dojindo Laboratories), a Hanks' balanced salt solution (Invitrogen, Inc.), 0.1% bovine serum albumin (Sigma-Aldrich Co., LLC.), 2.5 mM probenecid (Sigma-Aldrich Co., LLC.), and 200 μg/mL Amaranth (Sigma-Aldrich Co., LLC.), followed by incubation at 37° C. in 5% CO2 for 60 min. The assay buffer containing Fluo 4-AM ester was removed, and then 150 μL of an assay buffer solution containing 10 mM of the test compound dissolved in dimethyl sulfoxide was added to each well, followed by incubation for 30 min.
(§2) A peptide (Pyr-[…]NH2: Peptide Institute, Inc.), which is a ligand having substitution of two amino acids in human orexin-A, was diluted with an assay buffer to a final concentration of 300 pM for hOX1R and to a final concentration of 3 nM for hOX2R. The reaction was started by adding 50 μL of this ligand solution to each well. The reaction was monitored by measuring the fluorescence of each well at each 1 second for 3 min with a Functional Drug Screening System (FDSS manufactured by Hamamatsu Photonics K.K.), and the antagonist activity was determined based on the maximum fluorescence value as an index of the intracellular Ca^2+ concentration. The antagonist activity of a test compound was calculated by assuming that the fluorescence value of the well containing only a dilution buffer was 100% and that the fluorescence value of the well containing a buffer not containing the ligand or any test compound was 0%. The 50% inhibitory concentration (IC50 value) of a test compound was determined from fluorescence values at various concentrations of the test compound.

[2] = molecular target: T2, human orexin 2 receptor (hOX2R) (Homo sapiens, UniProt O43614); assay: Measurement of orexin antagonist activity (intracellular Ca2+ fluorescence, FDSS) in CHO cells expressing hOX2R; type: cell-based; details: CHO cells forcibly expressing hOX2R; ligand (two-amino-acid-substituted human orexin-A) 3 nM; Fluo 4-AM; read-out: IC50 value OX2
T2 construct: expressed in transfected cells; host or cells: Chinese hamster ovary (CHO) cells
T2 sequence (O43614 1-444): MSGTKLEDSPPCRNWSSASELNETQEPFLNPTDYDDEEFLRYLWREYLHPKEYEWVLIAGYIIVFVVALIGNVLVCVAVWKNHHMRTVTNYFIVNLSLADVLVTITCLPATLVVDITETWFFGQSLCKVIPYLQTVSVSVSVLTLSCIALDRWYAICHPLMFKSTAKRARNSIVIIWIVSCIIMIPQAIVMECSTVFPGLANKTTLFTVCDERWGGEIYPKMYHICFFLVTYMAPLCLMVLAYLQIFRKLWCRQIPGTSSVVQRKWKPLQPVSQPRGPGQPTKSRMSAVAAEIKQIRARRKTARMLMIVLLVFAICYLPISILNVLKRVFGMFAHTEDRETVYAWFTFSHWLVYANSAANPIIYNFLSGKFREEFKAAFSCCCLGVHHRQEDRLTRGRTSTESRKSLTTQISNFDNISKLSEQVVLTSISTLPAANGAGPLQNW
Description: as §1, §2

IC50 [1] | IC50 [2] | Compound
17.8 nM | 24.8 nM | CCN(CCc1ccn(-c2cccc(C(F)(F)F)n2)n1)C(=O)c1ccccc1-n1nccn1 [Example 24, N-ethyl-2-(2H-1,2,3-triazol-2-yl)-N-(2-{1-[6-(trifluoromethyl)pyridin-2-yl]-1H-pyrazol-3-yl}ethyl)benzamide]
1.6 nM | 3.3 nM | CCN(CCc1ccn(-c2ccc(F)c(F)c2)n1)C(=O)c1ccccc1-n1nccn1 [Example 25, N-{2-[1-(3,4-difluorophenyl)-1H-pyrazol-3-yl]ethyl}-N-ethyl-2-(2H-1,2,3-triazol-2-yl) benzamide]
61.1 nM | 380 nM | CCN(CCc1ccn(-c2cc(C(F)(F)F)ccn2)n1)C(=O)c1ccccc1-n1nccn1 [Example 26, N-ethyl-2-(2H-1,2,3-triazol-2-yl)-N-{2-{1-[4-(trifluoromethyl)pyridin-2-yl]-1H-pyrazol-3-yl}ethyl}benzamide]
1.1 nM | 18.4 nM | CCN(CCc1ccn(-c2ccc(F)cc2)n1)C(=O)c1cc(F)ccc1-c1ncccn1 [Example 27, N-ethyl-5-fluoro-N-{2-[1-(4-fluorophenyl)-1H-pyrazol-3-yl]ethyl}-2-(pyrimidin-2-yl) benzamide]
8.1 nM | 81.1 nM | CCN(CCc1ccn(-c2cccc(C)n2)n1)C(=O)c1cc(F)ccc1-c1ncccn1 [Example 28, N-ethyl-5-fluoro-N-{2-[1-(6-methylpyridin-2-yl)-1H-pyrazol-3-yl]ethyl}-2-(pyrimidin-2-yl) benzamide]
1.3 nM | 11.2 nM | CCN(CCc1ccn(-c2ccc(F)c(F)c2)n1)C(=O)c1cc(F)ccc1-c1ncccn1 [Example 29, N-{2-[1-(3,4-difluorophenyl)-1H-pyrazol-3-yl]ethyl}-N-ethyl-5-fluoro-2-(pyrimidin-2-yl) benzamide]
1.9 nM | 13.2 nM | CCN(CCc1ccn(-c2ccc(F)cc2)n1)C(=O)c1ccccc1-c1ncccn1 [Example 30, N-ethyl-N-{2-[1-(4-fluorophenyl)-1H-pyrazol-3-yl]ethyl}-2-(pyrimidine-2-yl)benzamide]
11.6 nM | 114 nM | CN(CCc1noc(-c2ccc(F)cc2)n1)C(=O)c1ccccc1-n1nccn1 [Example 31, N-{2-[5-(4-Fluorophenyl)1,2,4-oxadiazol-3-yl]ethyl}-N-methyl-2-(2H-1,2,3-triazol-2-yl)benzamide]
14.8 nM | 133 nM | CN(CCc1noc(-c2ccc(F)c(F)c2)n1)C(=O)c1ccccc1-n1nccn1 [Example 32, N-{2-[5-(3,4-difluorophenyl)-1,2,4-oxadiazol-3-yl]ethyl}-N-methyl-2-(2H-1,2,3-triazol-2-yl) benzamide]
1190 nM | 2530 nM | CN(CCc1noc(-c2ccc(F)cn2)n1)C(=O)c1ccccc1-n1nccn1 [Example 33, N-{2-[5-(5-fluoropyridin-2-yl)-1,2,4-oxadiazol-3-yl]ethyl}-N-methyl-2-(2H-1,2,3-triazol-2-yl) benzamide]
83.4 nM | 119 nM | Cc1ccc(-n2nccn2)c(C(=O)N(C)CCc2noc(-c3ccc(F)cn3)n2)c1 [Example 34, N-{2-[5-(5-fluoropyridin-2-yl)-1,2,4-oxadiazol-3-yl]ethyl}-N,5-dimethyl-2-(2H-1,2,3-triazol-2-yl)benzamide]
2.4 nM | 13.9 nM | Cc1ccc(-n2nccn2)c(C(=O)N(C)CCc2noc(-c3ccc(F)cc3)n2)c1 [Example 35, N-{2-[5-(4-fluorophenyl)-1,2,4-oxadiazol-3-yl]ethyl}-N,5-dimethyl-2-(2H-1,2,3-triazol-2-yl) benzamide]
1.9 nM | 5.9 nM | Cc1ccc(-n2nccn2)c(C(=O)N(C)CCc2noc(-c3ccc(F)c(F)c3)n2)c1 [Example 36]
1.1 nM | 2 nM | CCN(CCc1noc(-c2ccc(F)c(F)c2)n1)C(=O)c1cc(C)ccc1-n1nccn1 [Example 37, N-ethyl-N-{2-[5-(3,4-difluorophenyl)-1,2,4-oxadiazol-3-yl]ethyl}-5-methyl-2-(2H-1,2,3-triazol-2-yl)benzamide]
1.2 nM | 6.1 nM | CCN(CCc1noc(-c2ccc(F)cc2)n1)C(=O)c1cc(C)ccc1-n1nccn1 [Example 38, N-Ethyl-N-{2-[5-(4-fluorophenyl)-1,2,4-oxadiazol-3-yl]ethyl}-5-methyl-2-(2H-1,2,3-triazol-2-yl)benzamide]
0.7 nM | 17.3 nM | CCN(CCc1noc(-c2ccc(F)cc2)n1)C(=O)c1cc(C)ccc1-c1ncccn1 [Example 39, N-ethyl-N-{2-[5-(4-fluorophenyl)-1,2,4-oxadiazol-3-yl]ethyl}-5-methyl-2-(pyrimidin-2-yl)benzamide]
1.7 nM | 78 nM | CCN(CCc1noc(-c2ccc(F)cc2)n1)C(=O)c1cc(F)ccc1-c1ncccn1 [Example 40, N-ethyl-5-fluoro-N-{2-[5-(4-fluorophenyl)-1,2,4-oxadiazol-3-yl]ethyl}-2-(pyrimidin-2-yl) benzamide]
1.6 nM | 31.6 nM | CCN(CCc1noc(-c2ccc(F)cc2)n1)C(=O)c1ccccc1-n1nccn1 [Example 41, N-ethyl-N-{2-[5-(4-fluorophenyl)-1,2,4-oxadiazol-3-yl]ethyl}-2-(2H-1,2,3-triazol-2-yl) benzamide]
9.7 nM | 10.8 nM | CCN(CCc1noc(-c2ccc(F)c(F)c2)n1)C(=O)c1ccccc1-n1nccn1 [Example 42, N-ethyl-N-{2-[5-(3,4-difluorophenyl)-1,2,4-oxadiazol-3-yl]ethyl}-2-(2H-1,2,3-triazol-2-yl) benzamide]
61 nM | 69.8 nM | CCN(CCc1noc(-c2ccc(F)c(F)c2)n1)C(=O)c1cc(F)ccc1-c1ncccn1 [Example 43, N-{2-[5-(3,4-difluorophenyl)-1,2,4-oxadiazol-3-yl]ethyl}-N-ethyl-5-fluoro-2-(pyrimidin-2-yl) benzamide]
791 nM | 613 nM | CCN(CCc1noc(-c2ccc(F)cn2)n1)C(=O)c1ccccc1-n1nccn1 [Example 44, N-ethyl-N-{2-[5-(5-fluoropyridin-2-yl)-1,2,4-oxadiazol-3-yl]ethyl}-2-(2H-1,2,3-triazol-2-yl) benzamide]
163 nM | 159 nM | CCN(CCc1noc(-c2ccc(F)cn2)n1)C(=O)c1cc(C)ccc1-c1ncccn1 [Example 45, N-ethyl-N-{2-[5-(5-fluoropyridin-2-yl)-1,2,4-oxadiazol-3-yl]ethyl}-5-methyl-2-(pyrimidin-2-yl)benzamide]
974 nM | 1230 nM | CCN(CCc1noc(-c2ccc(F)cn2)n1)C(=O)c1cc(F)ccc1-c1ncccn1 [Example 46, N-ethyl-5-fluoro-N-{2-[5-(5-fluoropyridin-2-yl)-1,2,4-oxadiazol-3-yl]ethyl}-2-(pyrimidin-2-yl) benzamide]
